Assay results as given in publication PMC9097415, “Nanomolar EP4 receptor potency and expression of eicosanoid-related enzymes in normal appearing colonic mucosa from patients with colorectal neoplasia” (BMC Gastroenterology, 2022).
Where “and” joins values, the source holds several entries; their conditions need not be identical. Identical values can stand only once.

How the values were obtained:
[1] = target: T1, EP1 receptor (Homo sapiens, UniProt P34995); assay: EP1 agonist stimulation of colonic mucosa biopsies in MUAS-chambers, SCC; type: cell-based; settings: biopsies exposed to the selective EP1 agonist
T1 construct: Four biopsies were mounted and oxygenated in MUAS-chambers after extraction; from tissue; host or cells: human colonic mucosa biopsies mounted in MUAS (modified Ussing) chambers
T1 sequence (P34995 1-402): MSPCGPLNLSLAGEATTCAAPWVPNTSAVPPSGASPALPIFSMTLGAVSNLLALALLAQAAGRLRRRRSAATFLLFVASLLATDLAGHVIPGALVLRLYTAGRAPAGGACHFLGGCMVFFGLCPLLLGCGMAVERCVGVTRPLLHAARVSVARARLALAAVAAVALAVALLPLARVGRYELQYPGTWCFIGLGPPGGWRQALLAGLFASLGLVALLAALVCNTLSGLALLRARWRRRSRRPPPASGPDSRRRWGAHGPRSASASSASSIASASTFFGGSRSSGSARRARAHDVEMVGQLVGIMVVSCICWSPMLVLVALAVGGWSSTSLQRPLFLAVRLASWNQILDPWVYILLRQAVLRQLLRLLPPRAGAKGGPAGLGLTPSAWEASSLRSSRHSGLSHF
Method: (§1) Four biopsies were mounted and oxygenated in MUAS-chambers after extraction as described by Larsen et al. generally within 45 min after extraction. Biopsies were bathed on both sides with 10 mL Ringer, supplemented with 5.5 mM D-glucose. Temperature was maintained at 37.2 °C by water jackets. An automated voltage-clamp device continuously recorded SCC and slope conductance.
(§2) Experiments began after a stable basal SCC was obtained within 10 min after proper mounting. All experiments were initiated by addition of amiloride (20 µM, mucosal side) to inhibit electrogenic sodium absorption mediated through epithelial sodium channels and followed by theophylline (400 µM, serosal side) to inhibit phosphodiesterase-dependent cyclic adenosine monophosphate (cAMP) degradation. Finally, to eliminate endogenous prostaglandin synthesis, indomethacin (13 µM, serosal side) was added and incubated for 40 min.
Biopsies from 47 patients were treated with PGE2 and selective EP receptor agonists to investigate receptor function, Table 1. A single agonist was added in increasing concentrations (1 nM to 5 µM, serosal side) to each MUAS-chamber. […]
To assess agonists and receptors, data obtained from dose–response curves were analyzed with either a single-Michaelis–Menten model (srm) or a two-Michaelis–Menten receptor/site model (trm) using Sigmaplot 13.0 for Windows, Systat Software Inc. (USA/Canada). […]

[2] = target: T2, EP4 receptor (Homo sapiens, UniProt P35408); assay: EP4 antagonist GW-X added before PGE2 dose-response in MUAS-chambers, agonist-based Cheng-Prusoff analysis; type: cell-based
T2 construct: Four biopsies were mounted and oxygenated in MUAS-chambers after extraction; from tissue; host or cells: human colonic mucosa biopsies mounted in MUAS (modified Ussing) chambers
Method: as §1, §2
Biopsies from 26 patients were treated with selective EP receptor antagonists, Table 1. A combination of 3 antagonists was added to each MUAS chamber (serosal side), to single out and investigate the remaining non-inhibited EP receptor subtype. After antagonist incubation (45 min), cumulative doses of PGE2 were added (3 nM to 1 µM, serosal side). The EP4 receptor was also examined with another selective antagonist, GW627368X (GW-X, 5 µM, serosal side).
(§3) To assess agonists and receptors, data obtained from dose–response curves were analyzed with either a single-Michaelis–Menten model (srm) or a two-Michaelis–Menten receptor/site model (trm) using Sigmaplot 13.0 for Windows, Systat Software Inc. (USA/Canada). Outcome data were maximum SCC responses (RMax) and EC50 of these analyses.
From 2 agonist dose-response curves, one determined in the absence of a competitive antagonist, the other in its presence at only a single concentration, it is possible to calculate the antagonist apparent half inhibition dissociation constant at equilibrium, […]. […]

[3] = system: EP receptors (EP1-4); assay: PGE2 stimulation of colonic mucosa biopsies in MUAS-chambers, short circuit current (SCC); type: cell-based, human
Method: as §1, §2
(§4) Biopsies from 47 patients were treated with PGE2 and selective EP receptor agonists to investigate receptor function, Table 1. A single agonist was added in increasing concentrations (1 nM to 5 µM, serosal side) to each MUAS-chamber. The final agonist concentration step was followed by the addition of 5 µM PGE2, to elicit a maximal PGE2-induced response.
as §3

[4] = target: T2, EP4 receptor; assay: EP4 agonist stimulation of colonic mucosa biopsies in MUAS-chambers, SCC; type: cell-based
Method: as §1, §2, §4, §3

T2 sequence (P35408 whole entry): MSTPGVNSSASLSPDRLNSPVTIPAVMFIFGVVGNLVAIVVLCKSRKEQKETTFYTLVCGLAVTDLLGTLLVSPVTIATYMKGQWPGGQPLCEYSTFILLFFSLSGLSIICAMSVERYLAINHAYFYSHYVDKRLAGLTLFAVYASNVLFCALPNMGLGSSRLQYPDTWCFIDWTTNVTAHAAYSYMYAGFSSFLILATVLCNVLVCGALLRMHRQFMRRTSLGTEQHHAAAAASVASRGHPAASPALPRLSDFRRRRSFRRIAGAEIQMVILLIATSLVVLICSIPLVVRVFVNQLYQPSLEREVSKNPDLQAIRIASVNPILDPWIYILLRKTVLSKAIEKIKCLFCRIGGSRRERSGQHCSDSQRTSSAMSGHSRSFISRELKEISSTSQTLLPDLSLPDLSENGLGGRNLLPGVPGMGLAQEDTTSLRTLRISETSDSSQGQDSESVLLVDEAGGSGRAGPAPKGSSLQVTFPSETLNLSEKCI

## CCCC[C@H](C)C[C@H](O)/C=C/[C@H]1[C@H](O)CC(=O)[C@@H]1CC(=O)C1CCC(C(=O)O)CC1 (some centres unmarked) [EP1 agonist, ONO-DI004]
[1]
  Biopsies showing no increase in SCC: 4 out of 22

## CCOc1c2c(c(OCC)c3ccccc13)C(=O)N(c1ccc(CC(=O)NS(=O)(=O)c3ccccc3)cc1)C2 [GW-X, GW627368X]
[2]; GW-X 5 µM, 4 protocols
  Mean EC50 ratio (agonist EC50 with / without antagonist): approximately 25
[2]; against PGE2 (and TCS 2510), GW-X 5 µM, from EC50 ratios, 14 individual experiments
  IC50: ~210 nM and 210 nM
[2]; low nanomolar PGE2 concentration range, rightward shift of the dose-response curve
  Type of inhibition of PGE2: competitive inhibition

## CCCCC[C@H](O)/C=C/[C@H]1[C@H](O)CC(=O)[C@@H]1C/C=C\CCCC(=O)O [PGE2, Prostaglandin E2]
[3]; both patient groups (CRN and CTRL), serosal side
  PGE2 concentration at which SCC increased (as low as): ≤ 1 nM
[3]; normal appearing colonic mucosa
  EP4 receptor potency of PGE2: low nanomolar range
[3]; srm and trm
  RMax rank among agonists: highest
[3]; two receptor model (trm)
  Average separation factor between EC50s of high and low affinity receptors: 64

## TCS 2510 [EP4 agonist]
[4]; CRN patients
  RMax as share of the PGE2 response: ~75%
[4]; CTRL patients
  RMax as share of the PGE2 response: approximately 50%
[4]; similar sensitivity to PGE2
  Sensitivity / potency for SCC increase: high potency in the low nanomolar range
[4]; single receptor model (srm)
  EC50 in CRN patients compared to CTRLs: higher
[4]; two receptor model (trm)
  Average separation factor between EC50s of high and low affinity receptors: 15
  RMax of low affinity receptors in CRN patients: significantly increased
